Measurements reported in patent US20240124483A1, “Methods for the Treatment of Fibrotic Disease” (SHY Therapeutics, LLC, priority 2021, published 2024).

Assays:
AKT phosphorylation = test: Western AKT Cell-Based Phosphorylation Assay; conditions: Homo sapiens, PANC-1, 6 hours, EGF 1.5 ng/ml, read-out: % inh of AKT phosphorylation in PANC-1
Experimental: (§1) Human tumor-derived pancreatic cancer cell line Panc-1 was purchased from American Type Culture Collection and grown in complete DMEM-High Glucose supplemented with penicillin (100 U/mL), streptomycin (100 μg/mL), and 10% heat-inactivated FBS at 37° C. in a humidified incubator with 5% CO2.
(§2) Method: Cells were plated at 350000 cells/well density in a 12-well plate, allowed 3 hours to adhere to the plate, then starved in the appropriate medium in the presence of 0.5% FBS overnight. The small molecules to be tested were added to the cells in the final concentration of 10 μM in the presence of 0.3% DMSO for 6 hours incubation at 37° C. Next, cells were stimulated with 1.5 ng/ml EGF for 15 minutes then cells were lysed with lysis buffer containing 1% Triton X-100, EDTA, and Halt™ Protease & Phosphatase Inhibitor Cocktail (Thermo Scientific). Protein concentration was assessed by BCA protein assay (Thermo Scientific). Phosphorylation level of Akt was determined by western blot.
(§3) Western blot protocol: Equal amounts of protein (15-50 μg) were separated by SDS-PAGE and transferred to nitrocellulose membranes (Invitrogen by Thermo Fisher Scientific). The membrane was stained with Ponceau S Stain (Boston BioProducts) to verify uniform protein loading. Membranes were blocked with 10% milk and phosphorylation levels of Akt were assessed by incubating overnight at 4° C. with anti-phospho-Akt (Ser473) antibody (Cell Signaling) followed by HRP-conjugated secondary antibody (Jackson Immunoresearch, West Grove, PA). Bands were incubated in Amersham ECL Prime Western Blotting Detection Reagent (GE Healthcare) and visualized using the ChemiDoc MP imaging system (Bio-Rad).

ERK1/2 phosphorylation = test: Western ERK1/2 Cell-Based Phosphorylation Assay; conditions: Homo sapiens, PANC-1, 6 hours, EGF 1.5 ng/ml, read-out: % inh of ERK1/2 phosphorylation in PANC-1
Experimental: as §1, with “Cell lines: Human” for “Human”, “Glucose,” for “Glucose”
as §2, with “C. For IC50 value determination, serial dilutions of compounds were added to cells under the same conditions.” for “C.”, “ERK1/2” for “Akt”
as §3, with “ERK1/2” for “Akt”, “anti-phospho-p44/42 (Thr202/Tyr204)” for “anti-phospho-Akt (Ser473)”

Row | Compound | inhibition at 10 µM (AKT phosphorylation) | inhibition at 10 µM (ERK1/2 phosphorylation)
1 | COC1CCCN(c2nc(-c3nccn3C)nc3sc(-c4ccn(C(C)C)n4)c(C)c23)C1 (racemic) [Compound 14, rac-6-(1-Isopropyl-1H-pyrazol-3-yl)-4-(3-methoxypiperidin-1-yl)-5-methyl-2-(1-methyl-1H-imidazol-2-yl)thieno[2,3-d]pyrimidine] | 46 to 75% | 76 to 100%
2 | COCC1CN(c2nc(-c3nccn3C)nc3sc(-c4ccn(C(C)C)n4)c(C)c23)CCO1 (racemic) [Compound 15, 4-(6-(1-Isopropyl-1H-pyrazol-3-yl)-5-methyl-2-(1-methyl-1H-imidazol-2-yl)thieno[2,3-d]pyrimidin-4-yl)-2-(methoxymethyl)morpholine] | 76 to 100% | 46 to 75%
3 | COCCO[C@H]1CC[C@@H](Nc2nc(-c3nccn3C)nc3sc(-c4ccn(C(C)C)n4)c(C)c23)C1 (racemic) [Compound 20, rac-6-(1-Isopropyl-1H-pyrazol-3-yl)-N-((1R,3S)-3-(2-methoxyethoxy)cyclopentyl)-5-methyl-2-(1-methyl-1H-imidazol-2-yl)thieno[2,3-d]pyrimidin-4-amine] | 26 to 45% | 46 to 75%
4 | Cc1c(-c2ccn(C(C)C)n2)sc2nc(-c3nccn3C)nc(NCC3COCCN3C)c12 (racemic) [Compound 24, rac-6-(1-Isopropyl-1H-pyrazol-3-yl)-5-methyl-2-(1-methyl-1H-imidazol-2-yl)-N-((4-methylmorpholin-3-yl)methyl)thieno[2,3-d]pyrimidin-4-amine] | 0% | 0%
5 | Cc1c(-c2ccn(C(C)C)n2)sc2nc(-c3nccn3C)nc(NCC3CN(C)CCO3)c12 (racemic) [Compound 25, rac-6-(1-Isopropyl-1H-pyrazol-3-yl)-5-methyl-2-(1-methyl-1H-imidazol-2-yl)-N-((4-methylmorpholin-2-yl)methyl)thieno[2,3-d]pyrimidin-4-amine] | 1 to 25% | 0%
6 | Cc1c(-c2ccn(C(C)C)n2)sc2nc(-c3nccn3C)nc(NCC3CCCO3)c12 (racemic) [Compound 26, rac-6-(1-Isopropyl-1H-pyrazol-3-yl)-5-methyl-2-(1-methyl-1H-imidazol-2-yl)-N-((tetrahydrofuran-2-yl)methyl)thieno[2,3-d]pyrimidin-4-amine] | 0% | 0%
7 | COCC1(OC)CCN(c2nc(-c3nccn3C)nc3sc(-c4ccn(C(C)C)n4)c(C)c23)C1 (racemic) [Compound 27, rac-6-(1-Isopropyl-1H-pyrazol-3-yl)-4-(3-methoxy-3-(methoxymethyl)pyrrolidin-1-yl)-5-methyl-2-(1-methyl-1H-imidazol-2-yl)thieno[2,3-d]pyrimidine] | 26 to 45% | 1 to 25%
8 | COCCn1ccc(-c2sc3nc(-c4nccn4C)nc(NC[C@H]4CC[C@H]4COC)c3c2C)n1 (racemic) [Compound 38, rac-6-(1-(2-Methoxyethyl)-1H-pyrazol-3-yl)-N-(((1S,2R)-2-(methoxymethyl)cyclobutyl)methyl)-5-methyl-2-(1-methyl-1H-imidazol-2-yl)thieno[2,3-d]pyrimidin-4-amine] | 0% | 46 to 75%
9 | COCCn1ccc(-c2sc3nc(-c4nccn4C)nc(N[C@@H]4CC[C@H](OC)C4)c3c2C)n1 (racemic) [Compound 39, rac-N-((1R,3S)-3-Methoxycyclopentyl)-6-(1-(2-methoxyethyl)-1H-pyrazol-3-yl)-5-methyl-2-(1-methyl-1H-imidazol-2-yl)thieno[2,3-d]pyrimidin-4-amine] | 76 to 100% | 1 to 25%
10 | COc1cccc(-c2sc3nc(-c4nccn4C)nc(N[C@@H]4CC[C@@H](OC)C4)c3c2-c2ccccc2)c1F (racemic) [Compound 41, 6-(2-Fluoro-3-methoxyphenyl)-N-((1R,3R)-3-methoxycyclopentyl)-2-(1-methyl-1H-imidazol-2-yl)-5-phenylthieno[2,3-d]pyrimidin-4-amine] | 76 to 100% | 76 to 100%
11 | COc1cccc(-c2sc3nc(-c4nccn4C)nc(N[C@@H]4CC[C@@H](OC)C4)c3c2C)c1F (racemic) [Compound 43, rac-6-(2-Fluoro-3-methoxyphenyl)-N-((1R,3R)-3-methoxycyclopentyl)-5-methyl-2-(1-methyl-1H-imidazol-2-yl)thieno[2,3-d]pyrimidin-4-amine] | 0% | 46 to 75%
12 | CO[C@H]1C[C@H](CNc2nc(-c3nccn3C)nc3sc(-c4ccn(C(C)C)n4)c(C)c23)C1 [Compound 16, 6-(1-Isopropyl-1H-pyrazol-3-yl)-N-(((1r,3r)-3-methoxycyclobutyl)methyl)-5-methyl-2-(1-methyl-1H-imidazol-2-yl)thieno[2,3-d]pyrimidin-4-amine] | 0% | 76 to 100%
13 | COc1cccc(Nc2nc(-c3nccn3C)nc3sc(-c4ccn(C(C)C)n4)c(C)c23)c1 [Compound 17, 6-(1-Isopropyl-1H-pyrazol-3-yl)-N-(3-methoxyphenyl)-5-methyl-2-(1-methyl-1H-imidazol-2-yl)thieno[2,3-d]pyrimidin-4-amine] | 46 to 75% | 76 to 100%
14 | COc1cccc(Nc2nc(-c3nccn3C)nc3sc(-c4ccn(C(C)C)n4)c(C)c23)n1 [Compound 18, 6-(1-Isopropyl-1H-pyrazol-3-yl)-N-(6-methoxypyridin-2-yl)-5-methyl-2-(1-methyl-1H-imidazol-2-yl)thieno[2,3-d]pyrimidin-4-amine] | 26 to 45% | 0%
15 | COc1cc(Nc2nc(-c3nccn3C)nc3sc(-c4ccn(C(C)C)n4)c(C)c23)ncn1 [Compound 19, 6-(1-Isopropyl-1H-pyrazol-3-yl)-N-(6-methoxypyrimidin-4-yl)-5-methyl-2-(1-methyl-1H-imidazol-2-yl)thieno[2,3-d]pyrimidin-4-amine] | 76 to 100% | 76 to 100%
16 | COCCOCCNc1nc(-c2nccn2C)nc2sc(-c3ccn(C(C)C)n3)c(C)c12 [Compound 21, 6-(1-Isopropyl-1H-pyrazol-3-yl)-N-(2-(2-methoxyethoxy)ethyl)-5-methyl-2-(1-methyl-1H-imidazol-2-yl)thieno[2,3-d]pyrimidin-4-amine] | 1 to 25% | 0%
17 | Cc1c(-c2ccn(C(C)C)n2)sc2nc(-c3nccn3C)nc(NCCN3CCOCC3)c12 [Compound 22, 6-(1-Isopropyl-1H-pyrazol-3-yl)-5-methyl-2-(1-methyl-1H-imidazol-2-yl)-N-(2-morpholinoethyl)thieno[2,3-d]pyrimidin-4-amine] | 1 to 25% | 0%
18 | Cc1c(-c2ccn(C(C)C)n2)sc2nc(-c3nccn3C)nc(NCCN3CCS(=O)(=O)CC3)c12 [Compound 23, 4-(2-((6-(1-Isopropyl-1H-pyrazol-3-yl)-5-methyl-2-(1-methyl-1H-imidazol-2-yl)thieno[2,3-d]pyrimidin-4-yl)amino)ethyl)thiomorpholine 1,1-dioxide] | 0% | 0%
19 | CO[C@H]1CNC[C@@H](Nc2nc(-c3nccn3C)nc3sc(-c4ccn(C(C)C)n4)cc23)C1 [Compound 28, 6-(1-Isopropyl-1H-pyrazol-3-yl)-N-((3S,5R)-5-methoxypiperidin-3-yl)-2-(1-methyl-1H-imidazol-2-yl)thieno[2,3-d]pyrimidin-4-amine] | 26 to 45% | 46 to 75%
20 | COCCn1c(-c2nccn2C)nc2sc(-c3ccn(C(C)C)n3)c(C)c2c1=O [Compound 29, 6-(1-Isopropyl-1H-pyrazol-3-yl)-3-(2-methoxyethyl)-5-methyl-2-(1-methyl-1H-imidazol-2-yl)thieno[2,3-d]pyrimidin-4(3H)-one] | 0% | 0%
